Test results: paper PMC1310925, “Organotins Disrupt the 11β-Hydroxysteroid Dehydrogenase Type 2–Dependent Local Inactivation of Glucocorticoids” (Environmental Health Perspectives, 2005)

Experiments:
11β-HSD2 [1] = biological target: T1, 11β-HSD2 (Homo sapiens, UniProt P80365); test: 11β-HSD2 activity in lysates of stably transfected HEK-293 cells (cortisol to cortisone); type: biochemical; design: expressed in transfected cells; host or cells: HEK-293, stably transfected
T1 sequence (P80365 1-405): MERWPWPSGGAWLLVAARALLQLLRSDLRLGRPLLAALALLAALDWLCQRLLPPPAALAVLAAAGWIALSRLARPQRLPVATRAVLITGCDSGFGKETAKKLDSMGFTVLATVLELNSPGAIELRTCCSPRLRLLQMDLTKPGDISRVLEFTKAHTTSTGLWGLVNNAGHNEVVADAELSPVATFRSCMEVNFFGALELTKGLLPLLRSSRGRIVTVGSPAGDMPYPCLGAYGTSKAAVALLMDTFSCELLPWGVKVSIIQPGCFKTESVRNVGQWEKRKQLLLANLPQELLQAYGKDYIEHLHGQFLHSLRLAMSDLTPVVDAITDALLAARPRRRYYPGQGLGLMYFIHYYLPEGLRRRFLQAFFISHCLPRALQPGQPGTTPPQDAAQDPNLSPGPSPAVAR
Description: Cells were rinsed 3 times with phosphate-buffered saline (PBS) and resuspended in 2 mL ice-cold buffer TS2 (100 mM NaCl, 1 mM EGTA, 1 mM EDTA, 1 mM MgCl2, 250 mM sucrose, 20 mM Tris-HCl, pH 7.4). Aliquots of the cell suspension were frozen at −20°C, retaining full enzymatic activity for at least 3 months. For determinationof 11β-HSD2 activity, aliquots were thawed, sonicated, and diluted 1:12 in buffer TS2 (4°C). We carried out reactions in a final volume of 20 μL containing 10 nCi [1,2,6,7-^3H]-cortisol, 400-μM NAD^+, and different concentrations of unlabeled cortisol. […] Incubations were for 10 min at 37°C.

11β-HSD2 [2] = biological target: T1, 11β-HSD2; test: 11β-HSD2 activity in intact stably transfected HEK-293 cells; type: cell-based; design: expressed in transfected cells; host or cells: HEK-293, stably transfected
Description: HEK-293 cells stably transfected with 11β-HSD2 (25,000 cells per well) were seeded 24 hr prior to the assay in poly-D-lysine coated 96-well Biocoat plates (Becton Dickinson, Basel, Switzerland). The medium was carefully removed, followed by the addition of 30 μL fresh medium, 10 μL medium containing various concentrations of organotins, and 10 μL radiolabeled cortisol. The reaction volume was 50 μL, with a final cortisol concentration of 40 nM. The cells were incubated for 2 hr at 37°C under 5% CO2. We stopped reactions by adding an excess of unlabeled cortisone and cortisol in methanol, and separated steroids using thin-layer chromatography, followed by scintillation counting.

O[C@@H](CS)[C@@H](O)CS (racemic) [DTT, dithiothreitol, reference compound]
effect on 11β-HSD2 enzymatic activity (11β-HSD2 [1]; DTT alone, lysate): did not significantly alter enzymatic activity

N[C@@H](CCC(=O)N[C@@H](CS)C(=O)NCC(=O)O)C(=O)O [glutathione, reference compound]
prevention of organotin-dependent inhibition of 11β-HSD2 (11β-HSD2 [1]; not shown): not able to prevent

c1cc[c]([Sn][c]2ccccc2)cc1 [DPT, diphenyltin]
IC50 (11β-HSD2 [2]; HEK-293 stably transfected, 40 nM cortisol, 2 hr): 2.89 ± 0.59 µM
11β-HSD2 activity in intact cells, compound alone (11β-HSD2 [2]; concentrations 50% below their IC50 value): reduced 11β-HSD2 activity only slightly
IC50 (11β-HSD2 [1]; 40 nM cortisol, 400 μM NAD+, 10 min 37°C, read-out: IC50 11β-HSD2, cell lysate): 1.42 ± 0.17 µM
